Measured values reported in paper PMC12140300, “Development of Carbon‐11 Labeled Pyrimidine Derivatives as Novel Positron Emission Tomography (PET) Agents Enabling Brain Sigma‐1 Receptor Imaging” (Advanced Science, 2025).

Tests used:
MOR = target: T1, MOR (Homo sapiens, UniProt P35372); experiment: PDSP radioligand assay; format: binding
T1 construct: purchased NIMH Psychoactive Drug Screening Program (PDSP)

σ1R = target: T2, σ1R (Cavia porcellus, UniProt Q60492); experiment: Ex vivo competitive radioligand binding assay for σ1R, [3H](+)-pentazocine; parameters: species or system Dunkin Hartley guinea pig; settings: guinea pig brain membranes
T2 construct: guinea pig brain membranes protein; from tissue; host or cells: guinea pig brain membranes
Procedure: (§1) The ex vivo binding affinities of σRs of CNY‐01 and CNY‐02 were measured using a competitive radioligand binding assay.^[ [35] ^]
(§2) The following specific radioligands and tissue sources were used: (a) σ 1R, [^3H] (+)‐pentazocine, Dunkin Hartley guinea pig brain membranes; (b) σ 2R, [^3H]‐DTG, Dunkin Hartley guinea pig brain membranes. Membrane preparation of brain tissue was performed following the previously reported method.4 Generally, for σ 1R binding test, guinea pig brain membranes protein (5‐10 mg), [^3H]‐(+)‐pentazocine (4 nM), test compounds solution in various concentrations (10^−5 to 10^−10 M) were incubated at 25 °C for 180 min in Tris‐HCl buffer (pH 8.0). For σ 2R binding study, the membrane suspension was incubated with [^3H]‐DTG (3 nM), different concentration test compounds, within 400 nM (+)‐SKF10047 to block σ 1R. Nonspecific binding was conducted in both binding assays under similar conditions, adding […] haloperidol. After incubation, the mixture was rapidly filtrated through Whatman GF/B glass filters, washed twice and transferred to scintillation vials, and the radioactivity bound was measured by a Beckman LS 6500 liquid scintillation counter. Inhibition constants (Ki) were calculated based on the Cheng and Prusoff equation after the IC50 values were obtained.

5-HT6 = target: T3, 5-HT6 (Homo sapiens, UniProt P50406); experiment: PDSP radioligand assay; format: binding
T3 construct: purchased NIMH Psychoactive Drug Screening Program (PDSP)
Procedure: as §1
(§3) Details of individual binding assay conditions and protocols are available at the NIMH PDSP website: https://pdsp.unc.edu/pdspweb/.

5-HT5A = target: T4, 5-HT5A (Homo sapiens, UniProt P47898); experiment: PDSP radioligand assay; format: binding
T4 construct: purchased NIMH Psychoactive Drug Screening Program (PDSP)
Procedure: as §1, §3

H1 = H1 (Homo sapiens, UniProt P35367); experiment: PDSP radioligand assay; format: binding
Chain of H1 (P35367 whole entry): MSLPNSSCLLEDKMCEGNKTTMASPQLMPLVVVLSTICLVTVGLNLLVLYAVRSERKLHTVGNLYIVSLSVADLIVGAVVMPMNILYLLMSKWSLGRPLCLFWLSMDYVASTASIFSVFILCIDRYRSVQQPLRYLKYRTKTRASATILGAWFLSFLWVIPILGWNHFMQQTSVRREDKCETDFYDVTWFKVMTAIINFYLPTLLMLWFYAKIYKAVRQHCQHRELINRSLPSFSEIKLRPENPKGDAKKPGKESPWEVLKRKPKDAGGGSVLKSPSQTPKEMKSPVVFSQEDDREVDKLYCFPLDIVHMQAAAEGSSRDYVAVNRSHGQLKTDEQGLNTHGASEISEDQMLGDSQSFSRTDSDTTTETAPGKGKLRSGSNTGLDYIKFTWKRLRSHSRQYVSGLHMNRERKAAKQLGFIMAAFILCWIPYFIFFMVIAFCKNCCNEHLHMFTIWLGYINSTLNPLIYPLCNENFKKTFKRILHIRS
Procedure: as §1, §3

5-HT1D = 5-HT1D (Homo sapiens, UniProt P28221); experiment: PDSP radioligand assay; format: binding
Chain of 5-HT1D (P28221 whole entry, species assumed): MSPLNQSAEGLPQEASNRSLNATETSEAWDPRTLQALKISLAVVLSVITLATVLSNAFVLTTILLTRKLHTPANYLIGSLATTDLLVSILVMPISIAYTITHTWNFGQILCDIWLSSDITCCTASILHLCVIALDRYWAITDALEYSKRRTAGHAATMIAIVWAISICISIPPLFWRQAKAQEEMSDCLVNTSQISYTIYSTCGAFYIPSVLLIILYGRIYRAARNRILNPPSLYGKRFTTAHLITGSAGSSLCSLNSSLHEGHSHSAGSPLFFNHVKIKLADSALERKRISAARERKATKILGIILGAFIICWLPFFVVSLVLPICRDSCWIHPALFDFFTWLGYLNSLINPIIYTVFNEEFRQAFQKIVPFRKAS
Procedure: as §1, §3

D4 = target: T5, D4 (Homo sapiens, UniProt P21917); experiment: PDSP radioligand assay; format: binding
T5 construct: purchased NIMH Psychoactive Drug Screening Program (PDSP)
Procedure: as §1, §3

DOR = target: T6, DOR (Homo sapiens, UniProt P41143); experiment: PDSP radioligand assay; format: binding
T6 construct: purchased NIMH Psychoactive Drug Screening Program (PDSP)
Procedure: as §1, §3

M2 = target: T7, M2 (Homo sapiens, UniProt P08172); experiment: PDSP radioligand assay; format: binding
T7 construct: purchased NIMH Psychoactive Drug Screening Program (PDSP)
Procedure: as §1, §3

D1 = D1 (Homo sapiens, UniProt P21728); experiment: PDSP radioligand assay; format: binding
Chain of D1 (P21728 whole entry): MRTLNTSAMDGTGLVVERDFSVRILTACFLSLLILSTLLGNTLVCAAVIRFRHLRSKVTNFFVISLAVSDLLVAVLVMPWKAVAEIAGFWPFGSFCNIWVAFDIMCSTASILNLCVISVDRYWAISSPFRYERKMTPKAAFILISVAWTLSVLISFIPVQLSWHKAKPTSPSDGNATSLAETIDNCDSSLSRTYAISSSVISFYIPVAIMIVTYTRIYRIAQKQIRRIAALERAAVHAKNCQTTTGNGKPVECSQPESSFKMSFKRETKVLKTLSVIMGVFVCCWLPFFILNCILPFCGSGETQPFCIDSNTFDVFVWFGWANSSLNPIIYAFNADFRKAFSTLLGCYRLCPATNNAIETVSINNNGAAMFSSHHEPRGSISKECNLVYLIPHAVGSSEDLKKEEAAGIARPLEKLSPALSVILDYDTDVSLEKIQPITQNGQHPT
Procedure: as §1, §3

5-HT1B = 5-HT1B (Homo sapiens, UniProt P28222); experiment: PDSP radioligand assay; format: binding
Chain of 5-HT1B (P28222 whole entry, species assumed): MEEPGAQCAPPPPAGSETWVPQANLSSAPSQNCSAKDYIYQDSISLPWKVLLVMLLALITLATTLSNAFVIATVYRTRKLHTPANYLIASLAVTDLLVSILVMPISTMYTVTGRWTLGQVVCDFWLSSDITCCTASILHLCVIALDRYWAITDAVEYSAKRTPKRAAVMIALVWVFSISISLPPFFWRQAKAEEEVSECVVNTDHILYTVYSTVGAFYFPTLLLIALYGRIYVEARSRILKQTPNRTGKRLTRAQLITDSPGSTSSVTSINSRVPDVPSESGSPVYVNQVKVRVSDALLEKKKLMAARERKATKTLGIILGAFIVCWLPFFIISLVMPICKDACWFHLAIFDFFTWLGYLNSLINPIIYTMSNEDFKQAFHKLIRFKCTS
Procedure: as §1, §3

D3 = D3 (Homo sapiens, UniProt P35462); experiment: PDSP radioligand assay; format: binding
Chain of D3 (P35462 whole entry): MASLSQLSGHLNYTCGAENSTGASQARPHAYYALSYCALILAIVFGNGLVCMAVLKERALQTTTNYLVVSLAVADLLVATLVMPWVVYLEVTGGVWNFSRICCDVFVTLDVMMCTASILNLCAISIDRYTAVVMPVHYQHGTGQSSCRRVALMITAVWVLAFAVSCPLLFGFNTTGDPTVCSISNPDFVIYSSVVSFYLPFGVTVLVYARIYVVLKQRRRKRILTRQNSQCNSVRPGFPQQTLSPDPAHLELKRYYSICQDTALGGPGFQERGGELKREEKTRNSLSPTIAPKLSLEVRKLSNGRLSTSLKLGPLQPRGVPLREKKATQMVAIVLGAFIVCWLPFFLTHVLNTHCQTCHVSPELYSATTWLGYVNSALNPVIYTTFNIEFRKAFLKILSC
Procedure: as §1, §3

H2 = H2 (Homo sapiens, UniProt P25021); experiment: PDSP radioligand assay; format: binding
Chain of H2 (P25021 whole entry): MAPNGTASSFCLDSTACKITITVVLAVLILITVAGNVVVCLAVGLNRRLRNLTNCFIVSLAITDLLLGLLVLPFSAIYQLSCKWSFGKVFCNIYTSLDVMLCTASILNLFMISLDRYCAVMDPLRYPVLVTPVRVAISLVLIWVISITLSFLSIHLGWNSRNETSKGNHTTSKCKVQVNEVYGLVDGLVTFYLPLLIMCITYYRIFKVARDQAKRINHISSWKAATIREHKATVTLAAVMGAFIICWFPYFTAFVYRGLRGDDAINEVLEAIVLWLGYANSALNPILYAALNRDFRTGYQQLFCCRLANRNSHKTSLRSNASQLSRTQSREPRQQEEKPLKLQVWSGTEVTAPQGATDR
Procedure: as §1, §3

5-HT2C = target: T8, 5-HT2C (Homo sapiens, UniProt P28335); experiment: PDSP radioligand assay; format: binding
T8 sequence (P28335 33-458): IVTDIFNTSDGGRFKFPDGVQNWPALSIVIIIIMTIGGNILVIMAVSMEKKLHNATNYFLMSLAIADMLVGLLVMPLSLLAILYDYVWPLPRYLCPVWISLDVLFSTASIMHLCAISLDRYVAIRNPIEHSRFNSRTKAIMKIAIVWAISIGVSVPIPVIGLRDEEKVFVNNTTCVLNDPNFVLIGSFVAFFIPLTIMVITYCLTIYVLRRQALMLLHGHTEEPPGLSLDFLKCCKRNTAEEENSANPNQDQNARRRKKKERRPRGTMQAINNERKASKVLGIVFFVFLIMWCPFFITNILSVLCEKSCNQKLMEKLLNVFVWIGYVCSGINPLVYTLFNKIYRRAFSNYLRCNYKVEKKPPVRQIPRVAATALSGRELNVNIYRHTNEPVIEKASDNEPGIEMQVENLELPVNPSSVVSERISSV
Procedure: as §1, §3

Beta1 = target: T9, Beta1 (Homo sapiens, UniProt P08588); experiment: PDSP radioligand assay; format: binding
T9 construct: purchased NIMH Psychoactive Drug Screening Program (PDSP)
T9 sequence (P08588 whole entry): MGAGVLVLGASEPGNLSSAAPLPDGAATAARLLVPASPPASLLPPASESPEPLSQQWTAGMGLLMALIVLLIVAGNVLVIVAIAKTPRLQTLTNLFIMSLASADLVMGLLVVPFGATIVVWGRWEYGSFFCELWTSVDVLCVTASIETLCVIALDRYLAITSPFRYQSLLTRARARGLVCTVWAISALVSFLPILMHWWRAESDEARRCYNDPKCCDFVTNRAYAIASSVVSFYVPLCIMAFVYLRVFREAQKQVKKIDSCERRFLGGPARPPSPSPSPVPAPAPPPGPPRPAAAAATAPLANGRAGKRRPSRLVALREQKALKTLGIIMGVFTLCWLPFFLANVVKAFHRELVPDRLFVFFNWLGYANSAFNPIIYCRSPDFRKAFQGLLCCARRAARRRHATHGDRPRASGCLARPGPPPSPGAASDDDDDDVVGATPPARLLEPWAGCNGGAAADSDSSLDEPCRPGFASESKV
Procedure: as §1, §3

5-HT2B = 5-HT2B (Homo sapiens, UniProt P41595); experiment: PDSP radioligand assay; format: binding
Chain of 5-HT2B (P41595 whole entry, species assumed): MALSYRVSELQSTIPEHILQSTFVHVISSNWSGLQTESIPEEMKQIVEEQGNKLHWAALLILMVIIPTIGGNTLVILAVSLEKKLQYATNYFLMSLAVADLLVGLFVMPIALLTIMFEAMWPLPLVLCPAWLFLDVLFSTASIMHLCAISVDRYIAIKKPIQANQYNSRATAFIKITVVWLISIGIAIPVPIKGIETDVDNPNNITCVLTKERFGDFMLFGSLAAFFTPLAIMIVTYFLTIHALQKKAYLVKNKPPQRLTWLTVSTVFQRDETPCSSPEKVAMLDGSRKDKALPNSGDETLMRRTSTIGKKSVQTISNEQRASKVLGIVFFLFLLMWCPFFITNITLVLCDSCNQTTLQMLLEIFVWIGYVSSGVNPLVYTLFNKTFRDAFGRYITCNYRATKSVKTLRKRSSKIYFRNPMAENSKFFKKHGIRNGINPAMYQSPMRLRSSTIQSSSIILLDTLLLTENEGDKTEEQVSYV
Procedure: as §1, §3

H3 = H3 (Homo sapiens, UniProt Q9Y5N1); experiment: PDSP radioligand assay; format: binding
Chain of H3 (Q9Y5N1 whole entry): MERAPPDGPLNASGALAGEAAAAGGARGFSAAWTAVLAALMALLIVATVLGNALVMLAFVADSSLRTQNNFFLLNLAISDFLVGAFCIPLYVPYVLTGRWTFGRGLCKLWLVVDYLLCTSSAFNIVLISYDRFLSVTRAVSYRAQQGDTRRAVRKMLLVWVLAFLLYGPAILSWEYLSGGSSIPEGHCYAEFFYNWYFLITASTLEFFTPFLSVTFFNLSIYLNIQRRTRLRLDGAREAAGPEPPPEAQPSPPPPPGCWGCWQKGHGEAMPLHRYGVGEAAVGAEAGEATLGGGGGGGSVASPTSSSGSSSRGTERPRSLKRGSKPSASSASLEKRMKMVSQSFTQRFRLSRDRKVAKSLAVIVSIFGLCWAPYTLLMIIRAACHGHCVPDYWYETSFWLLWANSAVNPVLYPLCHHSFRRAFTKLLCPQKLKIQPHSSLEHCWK
Procedure: as §1, §3

5-HT3 = target: T10, 5-HT3 (Homo sapiens, UniProt P46098); experiment: PDSP radioligand assay; format: binding
T10 construct: purchased NIMH Psychoactive Drug Screening Program (PDSP)
Procedure: as §1, §3

5-HT2A = 5-HT2A (Homo sapiens, UniProt P28223); experiment: PDSP radioligand assay; format: binding
Chain of 5-HT2A (P28223 whole entry, species assumed): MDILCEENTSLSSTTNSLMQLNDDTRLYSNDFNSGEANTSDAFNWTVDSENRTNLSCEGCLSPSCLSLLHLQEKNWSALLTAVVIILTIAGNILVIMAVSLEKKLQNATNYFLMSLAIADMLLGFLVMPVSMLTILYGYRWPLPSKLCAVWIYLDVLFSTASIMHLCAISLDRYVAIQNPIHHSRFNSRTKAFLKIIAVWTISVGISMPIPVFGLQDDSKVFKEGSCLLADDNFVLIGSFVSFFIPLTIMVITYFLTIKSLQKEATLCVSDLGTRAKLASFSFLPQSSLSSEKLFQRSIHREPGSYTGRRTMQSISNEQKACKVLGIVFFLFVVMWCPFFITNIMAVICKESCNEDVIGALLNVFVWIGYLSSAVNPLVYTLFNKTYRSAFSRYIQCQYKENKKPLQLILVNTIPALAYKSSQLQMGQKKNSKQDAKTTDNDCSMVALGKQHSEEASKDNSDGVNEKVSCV
Procedure: as §1, §3

GABAA = experiment: PDSP radioligand assay; format: binding; settings: 10 µM
Procedure: as §1, §3

M3 = M3 (Homo sapiens, UniProt P20309); experiment: PDSP radioligand assay; format: binding
Chain of M3 (P20309 whole entry): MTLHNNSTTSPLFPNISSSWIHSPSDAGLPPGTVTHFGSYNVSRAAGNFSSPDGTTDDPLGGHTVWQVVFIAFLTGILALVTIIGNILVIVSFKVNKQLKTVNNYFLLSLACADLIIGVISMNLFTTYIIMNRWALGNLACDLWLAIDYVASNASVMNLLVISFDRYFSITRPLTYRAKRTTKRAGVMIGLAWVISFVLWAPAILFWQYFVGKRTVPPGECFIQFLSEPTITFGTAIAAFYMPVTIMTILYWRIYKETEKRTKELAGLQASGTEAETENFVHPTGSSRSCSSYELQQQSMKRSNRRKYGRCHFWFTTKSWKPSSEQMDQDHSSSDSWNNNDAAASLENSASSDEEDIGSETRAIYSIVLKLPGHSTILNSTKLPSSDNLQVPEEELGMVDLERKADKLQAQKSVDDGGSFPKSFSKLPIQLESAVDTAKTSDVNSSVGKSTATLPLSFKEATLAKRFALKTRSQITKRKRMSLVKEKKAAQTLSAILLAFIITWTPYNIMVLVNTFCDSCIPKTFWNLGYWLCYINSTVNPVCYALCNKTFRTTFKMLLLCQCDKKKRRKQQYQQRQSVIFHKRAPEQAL
Procedure: as §1, §3

5-HT1E = target: T11, 5-HT1E (Homo sapiens, UniProt P28566); experiment: PDSP radioligand assay; format: binding
T11 construct: purchased NIMH Psychoactive Drug Screening Program (PDSP)
Procedure: as §1, §3

Alpha1D = target: T12, Alpha1D (Homo sapiens, UniProt P25100); experiment: PDSP radioligand assay; format: binding
T12 construct: purchased NIMH Psychoactive Drug Screening Program (PDSP)
Procedure: as §1, §3

σ2R = experiment: Ex vivo competitive radioligand binding assay for σ2R, [3H]-DTG; parameters: species or system Dunkin Hartley guinea pig; settings: selectivity ratio, guinea pig brain membranes
Procedure: as §1
as §2, with “Membrane preparation of brain tissue was performed following the previously reported method.4 Generally, for σ 1R binding test, guinea pig brain membranes protein (5‐10 mg), [^3H]‐(+)‐pentazocine (4 nM), test compounds solution in various concentrations (10^−5 to 10^−10 M) were incubated at 25 °C for 180 min in Tris‐HCl buffer (pH 8.0).” left out

SMILES | inhibition at 10 µM (MOR) | Ki (σ1R) | inhibition at 10 µM (5-HT6) | inhibition at 10 µM (5-HT5A) | inhibition at 10 µM (H1) | Ki (5-HT1D) | inhibition at 10 µM (5-HT1D) | inhibition at 10 µM (D4) | inhibition at 10 µM (DOR) | inhibition at 10 µM (M2) | inhibition at 10 µM (D1) | Ki (5-HT1B) | inhibition at 10 µM (5-HT1B) | Ki (D3) | inhibition at 10 µM (D3) | Ki (H2) | inhibition at 10 µM (H2) | inhibition at 10 µM (5-HT2C) | inhibition at 10 µM (Beta1) | Ki (5-HT2B) | also measured
COc1ccc(-c2nc(C)c(Cl)c(OCCCN3CCCCC3)n2)cc1 [CNY-01, 5‐chloro‐2‐(4‐methoxyphenyl)‐4‐methyl‐6‐(3‐(piperidin‐1‐yl)propoxy)pyrimidine] | -16.4% | 3.88 nM | 30.1% | 31.9% | 93.2% | 2670 nM | 91.9% | 48% | 3.77% | 36.4% | 19% | 3200 nM | 79.8% | 521 nM | 65.8% | 709 nM | 89.7% | -5.06% | 7.15% | 914 nM | Ki (H1): 667 nM; inhibition at 10 µM (5-HT2B): 77.1%; Ki (H3): 1060 nM; inhibition at 10 µM (H3): 62.8%; inhibition at 10 µM (5-HT3): 7.61%; inhibition at 10 µM (5-HT2A): 36.3%; Mean % (inhibition) (GABAA): 25.49%; inhibition at 10 µM (M3): 16.3%; inhibition at 10 µM (5-HT1E): 31.2%; inhibition at 10 µM (Alpha1D): 23%; σ2R/σ1R (σ2R): 322
Cc1nc(-c2ccc(Cl)cc2)nc(OCCCN2CCN(C)CC2)c1Cl [CNY-02, 5‐chloro‐2‐(4‐chlorophenyl)‐4‐methyl‐6‐(3‐(4‐methylpiperazin‐1‐yl)propoxy)pyrimidine] | -14.4% | 2.05 nM | 28.1% | 29.4% | 43.7% | 7280 nM | 54.5% | 17.8% | 1.3% | 29.1% | 52.1% | 3740 nM | 60.3% | 4910 nM | 66.1% | 1240 nM | 84.9% | 89.4% | 3.55% | 530 nM | Ki (D1): 2340 nM; Ki (5-HT2C): 268 nM; inhibition at 10 µM (5-HT2B): 90.4%; inhibition at 10 µM (H3): 42.9%; inhibition at 10 µM (5-HT3): -1.23%; Ki (5-HT2A): 466 nM; inhibition at 10 µM (5-HT2A): 85.5%; Mean % (inhibition) (GABAA): 32.06%; Ki (M3): 727 nM; inhibition at 10 µM (M3): 54%; inhibition at 10 µM (5-HT1E): 27.8%; inhibition at 10 µM (Alpha1D): -14.8%; σ2R/σ1R (σ2R): 627
